Measurements from patent US11752125B2, “Anti-neuroinflammatory and protective compounds in Achillea fragrantissima” (THE STATE OF ISRAEL MINISTRY OF AGRICULTURE & RURAL …, priority 2013, dated 2023).

Experiments:
MEK1 = experiment: Aβ25-35-induced MEK1 phosphorylation in N2a cells (ELISA); assay type: cell-based; details: concomitant treatment 30-40 min
Protocol: 7. Measure the amount of total and phosphorylated MEK1 in cell lysates of N2a cells, by ELISA using the PathScan total MEK1 sandwich ELISA kit (Cell Signaling TECHNOLOGY) or the PathScan phosoho-MEK1 (Ser217/221) sandwich ELISA kit (Cell Signaling TECHNOLOGY), respectively. 8. Determine the optical density at 450 nm using a microplate reader.
N2a cells were treated concomitantly with Aβ25-35 and TTF for 30 min. Cells were extracted and the levels of phosphorylated or total MEK1 were determined by specific ELISA kits. The results are the mean±SEM of two different experiments for phosphoMEK1 (n=4) (see FIG. 12A) and of one experiment for total MEK1 (n=2) (see FIG. 12B).
N2a cells were treated concomitantly with Aβ25-35 and AcA for 40 min. Cells were extracted and the levels of phosphorylated or total MEK1 were determined by specific ELISA kits. The results are the mean±SEM of one experiment (n=2).
N2a cells were treated concomitantly with A25-35 and memantine for 30 min. Cells were extracted and the levels of phosphorylated or total MEK1 were determined by specific ELISA kits. The results are the mean±SEM of one experiment (n=2).

[1] = Hydrogen peroxide scavenging activity (A230); details: for H2O2 scavenged: 8 μM compound; for H2O2 scavenged / H2O2 scavenging ability at higher concentrations: 1 mM H2O2, 10 min; for H2O2 scavenging ability at higher concentrations: up to 32 μM compound; for H2O2 scavenging ability: 1 mM H2O2 in PBS, 10 min
Protocol: The scavenging of H2O2 was determined by the method of Ruch et al. Carcinogenesis. 1989 June; 10(6):1003-8, using 1 mM instead of 4 mM H2O2. A 1 mM solution of H2O2 was prepared in PBS and was incubated with different concentrations of TTF, quercetin or memantine. Absorbance (A230) was determined spectrophotometrically 10 min later against blank solutions containing TTF, quercetin or memantine in PBS without H2O2.
(§1) For assessment of H2O2 scavenging activity, 1 mM H2O2 and different concentrations of TTF, quercetin or memantine were co-incubated in PBS. Optical density was measured 10 min later. The results are shown in FIG. 6 and are means±SEM of two experiments performed in duplicates (n=4). **P<0.01, ***P<0.001, compared to H2O2 in the absence of TTF.
as §1, with “[…]” for “assessment”, “achillolide A,” for “TTF,”, “results” for “results are shown in FIG. 6 and”, “compound Results are shown in FIG. 38.” for “TTF.”

astrocytes = experiment: H2O2-induced intracellular ROS levels in astrocytes (DCF-DA); assay type: cell-based, rat; details: for ability to reduce H2O2-induced ROS compared among TTF, quercetin and memantine: concentrations higher than 16 μM, ROS after 1 h, p>0.05
Protocol: Intracellular ROS levels were detected using the non-fluorescent cell permeating compound, 2′7′-dichlorofluorescein diacetate (DCF-DA). DCF-DA is hydrolyzed by intracellular esterases and then oxidized by ROS to a fluorescent compound 2′-7′-DCF. Astrocytes were plated onto 24 wells plates (300,000 cells/well) and treated with DCF-DA (20 μM) for 30 min at 37° C. Following incubation with DCF-DA, cultures were rinsed twice with PBS and then re-suspended in DMEM containing 10% FBS, 8.4 mM HEPES, 2 mM glutamine, 100 U/ml penicillin, and 100 μg/mL streptomycin. ROS levels (fluorescence) at time zero were measured in a plate reader with excitation at 485 nm and emission at 520 nm. Astrocytes were then treated with TTF for 2 h before the addition of H2O2 and ROS levels (fluorescence) were measured in a plate reader with excitation at 485 nm and emission at 520 nm every hour for 4 h.
1. Produce a primary culture of rat brain glial cells according to the method described in “Protective effects of the essential oil of salvia fruticosa and its constituents on astrocytic susceptibility to hydrogen peroxide-induced cell death”. 2009. A. Elmann, S. Mordechay, M. Rindner, O. Larkov, M. Elkabetz, U. Ravid. Journal of agricultural and food chemistry. 57(15):6636-41; 2. Separate astrocytes from other cell types in the culture according to the method described in “Protective effects of the essential oil of salvia fruticosa and its constituents on astrocytic susceptibility to hydrogen peroxide-induced cell death”. 2009. A. Elmann, S. Mordechay, M. Rindner, O. Larkov, M. Elkabetz, U. Ravid. Journal of agricultural and food chemistry. 57(15):6636-41; 3. Plate astrocytes (300,000 cells/0.5 ml/well of 24 wells plate) and incubate (37° C., 5% CO2) for 24 hr as described in: Elmann, A., et al., (2011). Extract of Achillea fragrantissima downregulates ROS production and protects astrocytes from oxidative-stress-induced cell death. In: “Neurodegenerative Diseases—Processes, Prevention, Protection and Monitoring”, ISBN 978-953-307-485-6, (Raymond Chuen-Chung Chang, ed). […] Read fluorescence of “time 0” at 485 nm (Extinction) and 528 nm (Emmision). […] Read fluorescence at 1, 2, 3, 4 hr after the addition of H2O2 (Ex: 485 nm and Em: 528 nm). […]
Astrocytes were pre-loaded with DCF-DA for 30 min and washed. […] ROS levels in astrocytes were measured 1 h and 4 h after the application of H2O2. […] H2O2 was added to the culture and the fluorescence intensity representing ROS levels was measured after 1 h. […]
Preloaded astrocytes were then preincubated for 2 h with various concentrations of achillolide A or memantine. H2O2(175 μM) was added and the fluorescence intensity was measured […]. […]

Structure (SMILES) | effect on Aβ25-35-induced phosphorylation of MEK1 (MEK1) | H2O2 scavenged [1] [%] | H2O2 scavenging ability at higher concentrations [1] [%] | effect on H2O2-induced intracellular ROS levels (astrocytes; 8 μM, H2O2 175 μM, ROS measured 1 h and 4 h after H2O2) | H2O2 scavenging ability [1] | effect on H2O2-induced ROS production (astrocytes; 2 h preincubation, H2O2 175 μM, fluorescence 20 h later) | ability to reduce H2O2-induced ROS compared among TTF, quercetin and memantine (astrocytes; 2 h preincubation)
COc1cc(-c2oc3cc(OC)c(OC)c(O)c3c(=O)c2O)ccc1O [TTF, 3,5,4′-trihydroxy-6,7,3′-trimethoxyflavone] | significantly inhibited | 7 | ≤ 7 | inhibited the H2O2-induced elevation of intracellular ROS |  |  | 
C=C1CCC2=C(CO)C(=O)O[C@H]2/C=C(\C)[C@H](OC(C)=O)CC1=O [achillolide A] | does not affect |  |  |  | hydrogen peroxide scavenging ability | attenuates | 
CC12CC3CC(C)(C1)CC(N)(C3)C2 [memantine, reference compound] | down-regulates |  |  |  | did not have any scavenging ability |  | no significant difference
O=c1c(O)c(-c2ccc(O)c(O)c2)oc2cc(O)cc(O)c12 [quercetin, 3,3′,4′,5,7-Pentahydroxyflavone, reference compound] |  | 57 | 88 |  |  |  | no significant difference
